Source: patent publication US9402875B2, “Amidated dopamine neuron stimulating peptide restoration of mitochondrial activity” (University of Kentucky Research Foundation, priority 2006, dated 2016)
Entries after “also recorded” stand apart in the source; their conditions may differ. Ends that are not written are not given here.

Tests used:
[1] = target: T1, glyceraldehyde-3-phosphate dehydrogenase (GAPDH) (Rattus norvegicus, UniProt P04797); experiment: DNSP-11 pull-down with substantia nigra homogenate, 2D-PAGE and MALDI-TOF MS; type: binding
T1 construct: homogenate from isolated substantia nigra of normal young Fischer 344 rats; from tissue; host or cells: substantia nigra of Fischer 344 rats (cytosolic and membrane fractions)
T1 sequence (P04797 whole entry): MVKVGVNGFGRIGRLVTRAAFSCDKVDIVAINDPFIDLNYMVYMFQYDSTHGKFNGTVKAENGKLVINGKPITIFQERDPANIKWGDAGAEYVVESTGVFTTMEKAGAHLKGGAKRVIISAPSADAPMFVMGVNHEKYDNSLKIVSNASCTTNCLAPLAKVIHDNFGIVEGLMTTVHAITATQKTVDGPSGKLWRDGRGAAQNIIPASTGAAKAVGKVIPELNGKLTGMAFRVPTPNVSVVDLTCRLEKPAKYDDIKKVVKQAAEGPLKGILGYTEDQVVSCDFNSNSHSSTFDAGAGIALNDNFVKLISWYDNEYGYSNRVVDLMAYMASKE
Procedure: DNSP-11 Pull-down analysis: The F344 substantia nigra was homogenized in homogenization buffer (modified from York et al. (2005) FASED J. 19: 1202-4 with 20 mM HEPES, pH 7.4) and cytosolic fraction (supernatant) collected after 30 minutes at 100,000 g. 50 μg of bDNSP-11 was incubated with fraction for 15 minutes on ice. Sample was added to streptavidin magnetic beads (New England Biolabs), pelleted, and washed four times in homogenization buffer. Bound proteins were eluted by Solubilization/Rehydration Solution (7 M Urea, 2 M Thiourea, 50 mM DTT, 4% CHAPS, 1% NP-40, 0.2% Carrier ampholytes, 0.0002% Bromophenol blue), and analyzed by 2D-PAGE and MALDI-TOF MS.
In order to identify the interactions of DNSP-11 with protein partners and to gain insight into the cellular mechanisms involved with the actions of DNSP-11, a pull-down assay was performed with homogenate from isolated substantia nigra of normal young Fischer 344 rats. Cytosolic and membrane fractions were collected and incubated with biotinylated DNSP-11 for 30 minutes. Bound proteins were pulled down by strepavidin magnetic beads, extensively washed to remove non-specific binders, eluted with solubilization/rehydration buffer and separated by 2D-PAGE.
To identify these binding partners, protein bands were excised from the gels, trypsin digested, and analyzed by MALDI-TOF mass spectrometry. […]

MN9D cells = experiment: JC-1 mitochondrial membrane potential assay; type: cell-based
Procedure: MN9D cells and B65 cells were cultured in Dulbecco's Modified Eagle's Medium (DMEM; 11995 (containing pyridoxol HCl); Sigma, St. Louis, Mo.) supplemented with 10% fetal bovine serum (HyClone, Logan, Utah), 50 U/mL penicillin and streptomycin. For each assay the cells were treated with mitochondrial-specific environmental toxins, i.e., MPP+, rotenone, and/or TaClo, and with or without DNSP-11. After incubation with the toxins, the cells were plated on 24-well poly-D-lysine plates (50,000 cells/well) for TUNEL assay (as described below) or 100,000 cell/well for caspase-3 assay in DMEM medium with 1% (v/v) penicillin-streptomycin only (as described below).
MN9D and B65 cells were treated with either 50 nM, 100 nM, 250 nM, 500 nM, 2.5 μM or 5 μM rotenone, 50 nM, 100 nM, 250 nM 1-methyl-4-phenylpyridinium (MPP+), or 10 μM , 25 μM, 50 μM, 100 μM, 150 μM or […]-1,2,3,4-tetrahydro-β-carboline (TaClo), for 1 to 12 hours and then incubated at 37° C. in 5% CO2 following pretreatment (1 to 30 minutes) with or without 100 nM or 10 nM DNSP-11. After treatment with rotenone, MPP+ or TaClo and incubation with DNSP-11, the cells were incubated for 30 minutes at 37° C. in a 5% CO2 incubator in the presence of 10 μM of the green fluorescent JC-1 (5,5′, 6,6′-tetrachloro-1,1′,3,3′-tetraethylbenzimidazolyl-cabo-cyanine iodine, T-3168 (Invitrogen)) and then washed in Locke's solution. Optical measurements were acquired with excitation at 485 nm and emission at 527 nm, and 590 nm. The levels of fluorescence at each emission wavelengths were quantified and ratio of measurements was assessed. The pertinent data are given as mean±S.E.M. for mean optical measurements. The values are expressed as percent of the mean control values ±S.E.M. and analyzed using ANOVA.

Erk1/2 = experiment: ERK1/2 activation by western blot; type: cell-based; conditions: DNSP-11 0.1 uM or 1 uM or GDNF 50 ng/ml for 20 minutes
Procedure: MN9D and B65 cell were cultured in DMEM; 11995 (containing pyridoxol HCl; Sigma, St. Louis, Mo.) supplemented with 10% fetal bovine serum (HyClone, Logan, Utah), 50 U/mL penicillin and streptomycin with DNSP-11 (0.1 uM or 1 uM) or GDNF (50 ng/ml) for 20 minutes. The cells were then solubilized in Triton-X-100/glycerol lysis buffer and subjected to electrophoresis and western blotting as partially described previously (Jiang et al., Mol Biol Cell 14:859-70 (2003)). To detect phosphorylated Erk (#4377 Cell Signaling) and ERK (#4696 Cell Signaling) by immunoblotting, the cells were directly lysed in the sample loading buffer. Secondary IRDye 700X and IRDye800 conjugated, fluorescent antibodies (Rockland Inc.) were used to detect signal with Odyssey v3.0 scanning software. Several blots were analyzed to determine the linear range of the fluorescence signals, and quantifications were performed using densitometry analysis.

“PPEAPAEDRSL-NH2 [DNSP-11, PPEAPAEDRSL-amide]” was tested, and the “GAPDH as binding partner in pull-down” value ([1]; biotinylated DNSP-11, substantia nigra fractions, confirmed with pure GAPDH) was “identified”, the “number of bound proteins identified” value ([1]; cytosolic and membrane fractions, preliminary studies) was “approximately 20” and the “mitochondrial potential, protection from toxins” value (MN9D cells; MPP+, rotenone or TaClo 1 to 12 hours, pretreatment with 10 nM or 100 nM DNSP-11) was “protects the cells; also recorded: significant protection”. For the same substance, the “mitochondrial potential, DNSP-11 alone” value (MN9D cells; no toxin) was “no significant effect”, the “phosphorylation of Erk1/2 (ratio of phosphorylated to non-phosphorylated)” value (Erk1/2; B65 cells) was “increases significantly” and the “phosphorylation of Erk1/2 (ratio of phosphorylated to non-phosphorylated)” value (Erk1/2; MN9D cells) was “increases significantly”.
